Test results published in PubChem BioAssay AID330 (DTP/NCI, 2004).
Values joined by “and” are separate entries in the source; they are usually repeats but may differ in a detail not shown here. Equal entries are not always repeated. Inconclusive results and toxic doses are left out. How the source made its calls: active means survival T/C of 150% or more; inactive means T/C below 125% in these data.

Test system: P388 leukemia ip, CD2F1 mice, survival T/C
Assay: NCI In Vivo Anticancer Drug Screen. Data for tumor model P388 Leukemia (intraperitoneal) in CD2F1 (CDF1) mice
Details: endpoint: median survival time, higher = longer survival
Procedure, shortened: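 Mice carrying the transplanted tumor received test compound or vehicle. Survival was recorded in each group, and the value is the treated-group measurement divided by that of the vehicle-treated control group.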

[1] = dose: 15.0 mg/kg/injection, schedule: Q01DX005 (ip), vehicle: saline with Tween-80
[2] = dose: 30.0 mg/kg/injection, schedule: Q01DX005 (ip), vehicle: saline with Tween-80
[3] = dose: 60.0 mg/kg/injection, schedule: Q01DX005 (ip), vehicle: saline with Tween-80
[4] = dose: 120.0 mg/kg/injection, schedule: Q01DX005 (ip), vehicle: saline with Tween-80
[5] = dose: 50.0 mg/kg/injection, schedule: Q01DX005 (ip), vehicle: saline with Tween-80
[6] = dose: 100.0 mg/kg/injection, schedule: Q01DX005 (ip), vehicle: saline with Tween-80
[7] = dose: 200.0 mg/kg/injection, schedule: Q01DX005 (ip), vehicle: saline with Tween-80
[8] = dose: 25.0 mg/kg/injection, schedule: Q01DX009 (ip), vehicle: saline with Tween-80
[9] = dose: 50.0 mg/kg/injection, schedule: Q01DX009 (ip), vehicle: saline with Tween-80
[10] = dose: 12.5 mg/kg/injection, schedule: Q01DX009 (ip), vehicle: saline with Tween-80
[11] = dose: 240.0 mg/kg/injection, schedule: Q01DX005 (ip), vehicle: saline with Tween-80
[12] = dose: 50.0 mg/kg/injection, schedule: Q01DX005 (ip), vehicle: Klucel (hydroxypropylcellulose) (HPC)
[13] = dose: 100.0 mg/kg/injection, schedule: Q01DX005 (ip), vehicle: Klucel (hydroxypropylcellulose) (HPC)
[14] = dose: 25.0 mg/kg/injection, schedule: Q01DX005 (ip), vehicle: saline with Tween-80
[15] = dose: 200.0 mg/kg/injection, schedule: Q01DX005 (ip), vehicle: Klucel (hydroxypropylcellulose) (HPC)

Measured: T/C

O=C1CC[C@@H](NC(=O)Cc2ccccc2)C(=O)N1
inactive: dose: 7.5 mg/kg/injection, schedule: Q01DX005 (ip), vehicle: saline with Tween-80 103 % of control | [1] 97 % of control | [2] 98 % of control and 101 % of control | dose: 31.25 mg/kg/injection, schedule: Q01DX005 (ip), vehicle: saline with Tween-80 102 % of control | [3] 94 % of control and 96 % of control | dose: 62.5 mg/kg/injection, schedule: Q01DX005 (ip), vehicle: saline with Tween-80 101 % of control | [4] 88 % of control | dose: 125.0 mg/kg/injection, schedule: Q01DX005 (ip), vehicle: saline with Tween-80 99 % of control and 93 % of control | dose: 250.0 mg/kg/injection, schedule: Q01DX005 (ip), vehicle: saline with Tween-80 90 % of control | dose: 500.0 mg/kg/injection, schedule: Q01DX005 (ip), vehicle: saline with Tween-80 89 % of control

N#CCS(=O)(=O)c1cccc[n+]1[O-]
inactive: [5] 107 % of control and 115 % of control | [6] 118 % of control and 122 % of control | [7] 123 % of control

CCCCCC(=O)/C=C/C1=C(N2CCCC2)CN(C(=O)OCC)C1
inactive: dose: 60.0 mg/kg/injection, schedule: Q01DX005 (ip), vehicle: Klucel (hydroxypropylcellulose) (HPC) 86 % of control | dose: 120.0 mg/kg/injection, schedule: Q01DX005 (ip), vehicle: Klucel (hydroxypropylcellulose) (HPC) 89 % of control | dose: 240.0 mg/kg/injection, schedule: Q01DX005 (ip), vehicle: Klucel (hydroxypropylcellulose) (HPC) 91 % of control

CC1=NN(C(=O)CC(=O)Nc2ccc(C(=O)O)cc2)C(=O)C1N=Nc1ccccc1 (stereo unspecified)
inactive: dose: 50.0 mg/kg/injection, schedule: Q01DX005 (ip), vehicle: saline 105 % of control | dose: 100.0 mg/kg/injection, schedule: Q01DX005 (ip), vehicle: saline 102 % of control | dose: 200.0 mg/kg/injection, schedule: Q01DX005 (ip), vehicle: saline 108 % of control

COc1cc(C(=O)c2c(OC)cccc2C(=O)O)c(OC)cc1C
inactive: [8] 101 % of control | [9] 105 % of control | dose: 100.0 mg/kg/injection, schedule: Q01DX009 (ip), vehicle: saline with Tween-80 110 % of control | dose: 200.0 mg/kg/injection, schedule: Q01DX009 (ip), vehicle: saline with Tween-80 99 % of control | dose: 400.0 mg/kg/injection, schedule: Q01DX009 (ip), vehicle: saline with Tween-80 99 % of control

CC(C)Cc1cn(O)c2nc(=N)nc(N)c-2n1
inactive: [10] 100 % of control | [8] 93 % of control | [9] 101 % of control

CCOC(=O)C(=O)c1ccc(N(C)C)cc1
inactive: dose: 100.0 mg/kg/injection, schedule: Q01DX009 (ip), vehicle: Klucel (hydroxypropylcellulose) (HPC) 107 % of control | dose: 200.0 mg/kg/injection, schedule: Q01DX009 (ip), vehicle: Klucel (hydroxypropylcellulose) (HPC) 100 % of control | dose: 400.0 mg/kg/injection, schedule: Q01DX009 (ip), vehicle: Klucel (hydroxypropylcellulose) (HPC) 97 % of control

CCCCN(CCCC)C(=N)c1cc(OC)ccc1OC
inactive: dose: 3.12 mg/kg/injection, schedule: Q01DX005 (ip), vehicle: saline 101 % of control | dose: 6.25 mg/kg/injection, schedule: Q01DX005 (ip), vehicle: saline 100 % of control

CC1C2c3ccccc3C(c3ccccc32)C1CN1C(CCO)COC1c1ccccc1 (stereo unspecified)
inactive: [3] 92 % of control | [4] 87 % of control | [11] 90 % of control

Cc1ncc([N+](=O)[O-])n1CCSC(N)=O
inactive: dose: 50.0 mg/kg/injection, schedule: Q04DX003 (ip), vehicle: saline 102 % of control and 105 % of control | dose: 100.0 mg/kg/injection, schedule: Q04DX003 (ip), vehicle: saline 102 % of control and 114 % of control | dose: 200.0 mg/kg/injection, schedule: Q04DX003 (ip), vehicle: saline 100 % of control and 114 % of control | dose: 400.0 mg/kg/injection, schedule: Q04DX003 (ip), vehicle: saline 100 % of control and 120 % of control

O=C(O)C(=O)O.[U]
inactive: [10] 100 % of control

CC(=O)OCC1OC(n2cnc3c(N)ncnc32)C2OC(C)(C)OC12 (stereo unspecified)
inactive: [12] 101 % of control | [13] 97 % of control

O=[N+]([O-])C(Br)(Br)S(=O)(=O)c1ccccc1
inactive: [5] 97 % of control | [6] 106 % of control

Nc1ccc2nnnn2n1
inactive: dose: 50.0 mg/kg/injection, schedule: Q01DX009 (ip), vehicle: saline 100 % of control | dose: 100.0 mg/kg/injection, schedule: Q01DX009 (ip), vehicle: saline 98 % of control | dose: 200.0 mg/kg/injection, schedule: Q01DX009 (ip), vehicle: saline 98 % of control

O=S(=O)(OCCCl)c1c(Cl)c(Cl)c(Cl)c(Cl)c1Cl
inactive: dose: 12.5 mg/kg/injection, schedule: Q01DX005 (ip), vehicle: saline with Tween-80 95 % of control | [14] 92 % of control | [5] 92 % of control and 93 % of control | [6] 96 % of control

COC(=O)C1=C(C)NC(C)=C(C(=O)OC)C1c1cc2ccccc2n2nnnc12
inactive: [3] 95 % of control | [4] 98 % of control | [11] 88 % of control

CCCn1cnc2c(sc3ccccc32)c1=O
inactive: [12] 101 % of control | [13] 93 % of control | [15] 93 % of control

O=C(NC1=NN(c2ccccc2)C(=O)C1)c1ccccc1
inactive: dose: 9.37 mg/kg/injection, schedule: Q01DX009 (ip), vehicle: saline 101 % of control | dose: 18.75 mg/kg/injection, schedule: Q01DX009 (ip), vehicle: saline 110 % of control | dose: 37.5 mg/kg/injection, schedule: Q01DX009 (ip), vehicle: saline 98 % of control

COC(=O)C1C2c3ccccc3C(c3ccccc32)C1(C)C(=O)OC (stereo unspecified)
inactive: [12] 96 % of control | [13] 102 % of control | [15] 102 % of control

CC(C)C(NC(=O)C(Cl)Cl)C(=O)O (stereo unspecified)
inactive: [12] 96 % of control | [13] 94 % of control | [15] 96 % of control

COc1cc(/C=N\NC(=O)OC(C)(C)C)cc(OC)c1OC
inactive: dose: 50.0 mg/kg/injection, schedule: Q04DX003 (ip), vehicle: saline with Tween-80 100 % of control | dose: 100.0 mg/kg/injection, schedule: Q04DX003 (ip), vehicle: saline with Tween-80 91 % of control | dose: 200.0 mg/kg/injection, schedule: Q04DX003 (ip), vehicle: saline with Tween-80 91 % of control

O=C1CSC(c2cccc(O)c2)N1c1nncs1 (stereo unspecified)
inactive: [3] 114 % of control | [4] 107 % of control | [11] 95 % of control

CNc1ncc2c(n1)N(C)C(=O)/C(=C\C(=O)OC)N2
inactive: dose: 40.0 mg/kg/injection, schedule: Q01DX009 (ip), vehicle: saline with Tween-80 101 % of control | dose: 80.0 mg/kg/injection, schedule: Q01DX009 (ip), vehicle: saline with Tween-80 93 % of control | dose: 160.0 mg/kg/injection, schedule: Q01DX009 (ip), vehicle: saline with Tween-80 99 % of control

C=CCC(C)(C)CC=C1C2CCC1N(C(=O)OC)N2C(=O)OC
inactive: [14] 107 % of control | [5] 99 % of control | [6] 112 % of control

Cc1cccc(C)c1NC(=O)Nc1cccc(C#N)c1
inactive: [1] 91 % of control | [2] 95 % of control | [3] 91 % of control | [11] 89 % of control

O=S(=O)(c1ccccc1)N1CCN(S(=O)(=O)c2ccccc2)COC1
inactive: [5] 103 % of control | [6] 101 % of control | [7] 102 % of control

CC([NH-])C[NH-].[Br][Pt+2][Br] (stereo unspecified)
active: dose: 12.5 mg/kg/injection, schedule: Q04DX002 (ip), vehicle: saline with Tween-80 158 % of control | dose: 25.0 mg/kg/injection, schedule: Q04DX002 (ip), vehicle: saline with Tween-80 174 % of control

Cc1ccc(CC2C=CCN2)cc1 (stereo unspecified)
inactive: dose: 100.0 mg/kg/injection, schedule: Q01DX001 (ip), vehicle: distilled water + alcohol 99 % of control | dose: 200.0 mg/kg/injection, schedule: Q01DX001 (ip), vehicle: distilled water + alcohol 100 % of control

Cc1c(C#N)c(=O)[nH]c2ccc([N+](=O)[O-])cc12
inactive: [3] 94 % of control | [4] 93 % of control | [11] 100 % of control

CCOC(CNCc1cc(C)c2[nH]c3ccccc3c2c1C)OCC
inactive: [5] 100 % of control | [6] 102 % of control | [7] 110 % of control

Cc1c(NC(=O)Nc2ccc(F)cc2)c(=O)n(-c2ccccc2)n1C
inactive: [3] 114 % of control | [4] 99 % of control | [11] 96 % of control

Cc1cc(NC(=S)SCc2ccc(Cl)cc2)ccc1F
inactive: dose: 50.0 mg/kg/injection, schedule: Q01DX009 (ip), vehicle: suspension in saline 109 % of control | dose: 100.0 mg/kg/injection, schedule: Q01DX009 (ip), vehicle: suspension in saline 100 % of control | dose: 200.0 mg/kg/injection, schedule: Q01DX009 (ip), vehicle: suspension in saline 94 % of control
